Earlier results as cited in patent US20260265370A1, “COMBINATION THERAPIES INVOLVING CLAUDIN 18.2 ANTAGONISTS FOR TREATMENT OF CANCER” (SUZHOU TRANSCENTA THERAPEUTICS CO., LTD., priority 2023, published 2026).
Like-named read-outs stand apart in the source and are kept apart here.

What was measured:
[1] = system: advanced GC/GEJ cancer; settings: cited from earlier work
[2] = system: CLDN18.2+/HER2− locally advanced or metastatic gastric or gastroesophageal junction (mG/GEJ) adenocarcinoma; settings: cited from earlier work; for ORR: patients with measurable disease
[3] = system: unresectable advanced or recurrent gastric cancer; settings: cited from earlier work
[4] = CLDN18.2 ≥75% tumor cell staining 2+ or 3+
[5] = zolbetuximab+CAPOX vs PBO+CAPOX

For “Zolbetuximab: first-in-class, chimeric monoclonal antibody specific to a CLDN18.2 epitope”, the “tolerability” value ([1]; in vivo) is listed as “well-tolerated” and the ORR ([1]; phase IIa monotherapy, strong CLDN18.2 expression, ≥2+ staining intensity in 70% of tumor cells) is listed as 14%.

For “Zolbetuximab + CAPOX: GLOW arm: zolbetuximab plus capecitabine and oxaliplatin”, the mDoR [2, 4] is given as 6.28 months, the mPFS [2, 4] is given as 8.21 months and the ORR [2, 4] is given as 53.8%. For the same substance, the ORR ([2]; CLDN18.2 ≥75% tumor cell staining 2+ or 3+, listed as Zolbetuximab+CAPOX) was 53.8%, the ORR ([2]; CLDN18.2 ≥75% tumor cell staining 2+ or 3+, listed as zolbetuximab+CAPOX) was 53.8% and the OS median ([2]; in vivo) was 14.39 mo. For the same substance, the TEAE decreased appetite ([2]; in vivo) was 41.3%, the TEAE nausea ([2]; in vivo) was 68.5% and the TEAE vomiting ([2]; in vivo) was 66.1%. The “drug-related TEAEs leading to death” value ([2]; in vivo) was 2.4%, the “grade ≥3 TEAEs” value ([2]; in vivo) was 72.8% and the “serious TEAEs” value ([2]; in vivo) was 47.2%. For the same substance, the “HR of OS” value [2, 5] was 0.771 and the “HR of PFS” value [2, 5] was 0.687.

For Nivolumab: PD-1 checkpoint inhibitor, the ORR ([3]; in vivo) is listed as 11%, the “12-month OS rate” value ([3]; n=330) is listed as 26.2% and the “overall survival (OS)” value ([3]; progressed after two or more chemotherapy regimens) is listed as 5.26 months. For the same substance, the “HR of OS” value ([3]; vs placebo) was 0.63.
